Results on 2 compounds are retold here after ChEMBL document CHEMBL5058642, “Data for DCP probe TP-051” (2022).

A short description of series [1]: GPCRScan assay: inhibition of GABA/PBR. Details: species or system Rattus norvegicus; radioligand conc. used [nm] 0.3 – 2.0, parental cells brain tissue.
Series [2] deals with Free fatty acid receptor 1 (Homo sapiens, UniProt O14842). Briefly: FLIPR functional assay (Ca influx activity of CHO cells).
Series [3] concerns the target Muscarinic acetylcholine receptor M4 (Homo sapiens) (UniProt P08173). The note with it: Compound concentration 10.0 uM.
In series [4] the target is GABA-A receptor; anion channel (Rattus norvegicus) (UniProt O09028+P15431+P18506+P18508+P19969+P20236+P23574+P23576+P28471+P28473+P30191+P62813+P63079+P63138+Q91ZM7+Q9ES14). The note with it: Compound concentration 10.0 uM.
The target in the next series is D(3) dopamine receptor (Homo sapiens, UniProt P35462). Briefly: GPCRScan assay: inhibition of D3. On the set-up: radioligand conc. used [nm] 0.5 – 1.8, parental cells HEKT.
The next series deals with D(4) dopamine receptor (Homo sapiens, UniProt P21917). As to the kind of experiment: GPCRScan assay: inhibition of D4. On the set-up: radioligand conc. used [nm] 0.6 – 1.7, parental cells Stable HEK.
For series [5], the target named is Sodium-dependent dopamine transporter (Homo sapiens, UniProt Q01959). As to the kind of experiment: GPCRScan assay: inhibition of DAT. On the set-up: radioligand conc. used [nm] 3.6 – 16.0, parental cells stable HEK.
The target in series [6] is Beta-2 adrenergic receptor (Homo sapiens, UniProt P07550). As to the kind of experiment: GPCRScan assay: inhibition of Beta2. Details: radioligand conc. used [nm] 0.5 - 1.0, parental cells HEK Flp-In.
Series [7] has as its target Alpha-1D adrenergic receptor (Homo sapiens, UniProt P25100). Briefly: GPCRScan assay: inhibition of Alpha1D. On the set-up: radioligand conc. used [nm] 0.3 – 1.0, parental cells stable.
For series [8], the target named is Prostaglandin G/H synthase 1 (Homo sapiens) (UniProt P23219). As to the kind of experiment: Inhibition of Cyclooxygenase COX-1 at compound concentration of 10.0 uM in the Eurofins-Panlabs enzyme assay (Eurofins_assay_116020). To be noted: Compound concentration 10.0 uM.
For series [9], the target named is Prostaglandin G/H synthase 2 (Homo sapiens) (UniProt P35354). Briefly: Inhibition of Cyclooxygenase COX-2 at compound concentration of 10.0 uM in the Eurofins-Panlabs enzyme assay (Eurofins_assay_118010). The note with it: Compound concentration 10.0 uM. On the set-up: substrate with concentration 0.3 uM Arachidonic acid, incubation time 15 min, incubation temperature 37 C.

The target of series [10] is Phosphodiesterase 3 (Homo sapiens) (UniProt Q14432+Q13370). As to the kind of experiment: Inhibition of Phosphodiesterase PDE3 at compound concentration of 10.0 uM in the Eurofins-Panlabs enzyme assay (Eurofins_assay_152000). Details: substrate with concentration 1.01 uM [3H] cAMP + cAMP, incubation time 20 min, incubation temperature 25 C. In kind it is protein assay. The note with it: Compound concentration 10.0 uM.

In series [11] the target is Mitogen-activated protein kinase 3 (Homo sapiens) (UniProt P27361). As to the kind of experiment: Inhibition of Protein Serine/Threonine Kinase, MAPK3 (ERK1) at 10 µM in the Eurofins-Panlabs enzyme assay (Eurofins_assay_171000). The note with it: Compound concentration 10.0 uM.
In series [12] the target is T1, 5-hydroxytryptamine receptor 3A (Homo sapiens) (UniProt P46098).
T1 sequence (whole entry): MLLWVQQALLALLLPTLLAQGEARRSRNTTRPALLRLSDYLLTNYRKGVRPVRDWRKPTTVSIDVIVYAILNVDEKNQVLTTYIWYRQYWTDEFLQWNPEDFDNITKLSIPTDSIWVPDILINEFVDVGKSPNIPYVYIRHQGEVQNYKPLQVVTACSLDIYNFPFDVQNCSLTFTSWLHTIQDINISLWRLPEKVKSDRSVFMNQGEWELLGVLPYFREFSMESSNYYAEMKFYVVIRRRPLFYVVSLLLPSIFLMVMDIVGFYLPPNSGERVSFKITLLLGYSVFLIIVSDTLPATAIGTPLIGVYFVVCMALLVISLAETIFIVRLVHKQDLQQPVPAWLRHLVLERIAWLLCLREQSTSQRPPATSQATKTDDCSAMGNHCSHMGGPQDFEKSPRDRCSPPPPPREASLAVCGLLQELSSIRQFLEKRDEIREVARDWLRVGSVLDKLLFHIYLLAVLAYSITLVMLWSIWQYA
Briefly: Inhibition of Serotonin (5-Hydroxytryptamine) 5-HT3 at 10 µM in the Eurofins-Panlabs radioligand binding assay (Eurofins_assay_271910). Details: ligand concentration 0.69 nM; call rule not given here. To be noted: Compound concentration 10.0 uM.

The target in the next series is MAO-B (Homo sapiens, UniProt P27338). As to the kind of experiment: Inhibition of Monoamine Oxidase MAO-B at compound concentration of 10.0 uM in the Eurofins-Panlabs enzyme assay (Eurofins_assay_140120). To be noted: recombinant human MAO-B expressed in insect Hi5 cells, probe Kynuramine, 50 uM, compound concentration 10 uM. Details: substrate with concentration 50 uM Kynuramine, incubation time 60 min, incubation temperature 37 C.

Series [13] addresses Cathepsin G (Homo sapiens) (UniProt P08311). Briefly: Inhibition of Peptidase, CTSG (Cathepsin G) at 10 µM in the Eurofins-Panlabs enzyme assay (Eurofins_assay_112510). Details: substrate with concentration. The note with it: Compound concentration 10.0 uM.
The species entered for another series is Bos taurus. As to the kind of experiment: Protein Serine/Threonine Kinase, PKA, Non-Selective Eurofins-Panlabs enzyme assay. In kind it is protein-complex assay. Details: substrate with concentration 370 µg/mL Histone Type III-S, incubation time 15 min, incubation temperature 25 °C. To be noted: Compound concentration 10.0 uM.
The target of series [14] is Neprilysin (Homo sapiens) (UniProt P08473). As to the kind of experiment: Peptidase, Metalloproteinase, Neutral Endopeptidase Eurofins-Panlabs enzyme assay. The note with it: Compound concentration 10.0 uM.
The target in series [15] is Epidermal growth factor receptor (Homo sapiens) (UniProt P00533). As to the kind of experiment: Protein Tyrosine Kinase, EGF Receptor Eurofins-Panlabs enzyme assay. To be noted: Compound concentration 10.0 uM. Details: substrate with concentration 10 µg/mL Poly(Glu:Tyr), incubation time 60 min, incubation temperature 25 °C.
A further series is filed under the species Rattus norvegicus. Briefly: ATPase, Ca2+ Eurofins-Panlabs enzyme assay. The note with it: Compound concentration 10.0 uM.
Series [16] concerns the target Carbonic anhydrase (Homo sapiens) (UniProt P00918+P43166+P00915+P07451+P23280+O43570+Q9ULX7+Q16790+P22748+Q8N1Q1+Q9Y2D0+P35218). Briefly: Carbonic Anhydrase Eurofins-Panlabs enzyme assay. The note with it: Compound concentration 10.0 uM. In kind it is protein assay.
The target of series [17] is Collagenase 3 (Homo sapiens) (UniProt P45452). As to the kind of experiment: Peptidase, Matrix Metalloproteinase-13 (MMP-13) Eurofins-Panlabs enzyme assay. On the set-up: substrate with concentration. The note with it: Compound concentration 10.0 uM.
Series [18] deals with Prothrombin (Homo sapiens) (UniProt P00734). Briefly: Peptidase, Thrombin Eurofins-Panlabs enzyme assay. On the set-up: substrate with concentration. To be noted: Compound concentration 10.0 uM.
The target of series [19] is Ca2+/calmodulin-dependent protein kinase II (CaM kinase II) (Rattus norvegicus) (UniProt P11275+P08413+P15791+P11730). As to the kind of experiment: Protein Serine/Threonine Kinase, Ca2+/Calmodulin-Dep.II Eurofins-Panlabs enzyme assay. The note with it: Compound concentration 10.0 uM.
The target of series [20] is Thromboxane-A synthase (Homo sapiens) (UniProt P24557). As to the kind of experiment: Thromboxane Synthase Eurofins-Panlabs enzyme assay. To be noted: Compound concentration 10.0 uM.
Series [21] addresses 5-hydroxytryptamine receptor 2A (Homo sapiens) (UniProt P28223). To be noted: Compound concentration 10.0 uM.
Series [22] deals with 5-hydroxytryptamine receptor 2C (Homo sapiens) (UniProt P28335). To be noted: Compound concentration 10.0 uM.
The target of series [23] is 5-hydroxytryptamine receptor 5A (Homo sapiens) (UniProt P47898). To be noted: Compound concentration 10.0 uM.
Series [24] concerns the target 5-hydroxytryptamine receptor 6 (Homo sapiens) (UniProt P50406). To be noted: Compound concentration 10.0 uM.
In series [25] the target is 5-hydroxytryptamine receptor 7 (Homo sapiens) (UniProt P34969). The note with it: Compound concentration 10.0 uM.
For series [26], the target named is Muscarinic acetylcholine receptor M3 (Homo sapiens) (UniProt P20309). To be noted: Compound concentration 10.0 uM.
In series [27] the target is cGMP-specific 3',5'-cyclic phosphodiesterase (Homo sapiens) (UniProt O76074). The note with it: Compound concentration 10.0 uM.
The target of series [28] is Xanthine dehydrogenase/oxidase (Bos taurus) (UniProt P80457). As to the kind of experiment: Xanthine Oxidase Eurofins-Panlabs enzyme assay. The note with it: cattle, bovine milk xanthine oxidase, probe Xanthine, 165 µM.

Beta-2 adrenergic receptor, sequence (P07550 whole entry): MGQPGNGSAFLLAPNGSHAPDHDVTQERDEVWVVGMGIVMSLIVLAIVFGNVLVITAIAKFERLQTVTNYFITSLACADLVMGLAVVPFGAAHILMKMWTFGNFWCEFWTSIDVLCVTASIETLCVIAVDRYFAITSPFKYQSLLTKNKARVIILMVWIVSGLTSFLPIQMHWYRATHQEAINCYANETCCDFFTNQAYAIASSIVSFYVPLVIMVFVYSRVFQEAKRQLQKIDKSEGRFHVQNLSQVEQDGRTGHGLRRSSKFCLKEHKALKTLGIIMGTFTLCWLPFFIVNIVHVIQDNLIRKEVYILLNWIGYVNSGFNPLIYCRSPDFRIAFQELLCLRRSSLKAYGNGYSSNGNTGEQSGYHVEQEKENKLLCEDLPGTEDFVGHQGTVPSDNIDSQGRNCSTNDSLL
Sodium-dependent dopamine transporter, sequence (Q01959 whole entry): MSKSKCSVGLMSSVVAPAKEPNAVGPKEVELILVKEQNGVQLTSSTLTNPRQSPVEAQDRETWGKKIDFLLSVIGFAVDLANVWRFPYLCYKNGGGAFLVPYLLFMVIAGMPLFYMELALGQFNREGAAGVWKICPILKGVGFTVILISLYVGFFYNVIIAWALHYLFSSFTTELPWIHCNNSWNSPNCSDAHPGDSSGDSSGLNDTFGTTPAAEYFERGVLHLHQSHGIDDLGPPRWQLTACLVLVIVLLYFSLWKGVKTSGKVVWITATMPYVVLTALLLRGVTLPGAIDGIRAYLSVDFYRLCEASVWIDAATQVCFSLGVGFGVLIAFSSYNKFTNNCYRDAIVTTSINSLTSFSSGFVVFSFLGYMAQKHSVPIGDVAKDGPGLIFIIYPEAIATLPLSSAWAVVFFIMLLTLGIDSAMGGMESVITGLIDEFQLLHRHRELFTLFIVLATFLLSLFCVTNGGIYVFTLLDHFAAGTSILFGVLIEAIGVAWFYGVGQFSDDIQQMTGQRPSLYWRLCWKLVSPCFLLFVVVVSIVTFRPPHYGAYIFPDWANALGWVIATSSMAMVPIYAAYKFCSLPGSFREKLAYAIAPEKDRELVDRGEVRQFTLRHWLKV
MAO-B, sequence (P27338 whole entry): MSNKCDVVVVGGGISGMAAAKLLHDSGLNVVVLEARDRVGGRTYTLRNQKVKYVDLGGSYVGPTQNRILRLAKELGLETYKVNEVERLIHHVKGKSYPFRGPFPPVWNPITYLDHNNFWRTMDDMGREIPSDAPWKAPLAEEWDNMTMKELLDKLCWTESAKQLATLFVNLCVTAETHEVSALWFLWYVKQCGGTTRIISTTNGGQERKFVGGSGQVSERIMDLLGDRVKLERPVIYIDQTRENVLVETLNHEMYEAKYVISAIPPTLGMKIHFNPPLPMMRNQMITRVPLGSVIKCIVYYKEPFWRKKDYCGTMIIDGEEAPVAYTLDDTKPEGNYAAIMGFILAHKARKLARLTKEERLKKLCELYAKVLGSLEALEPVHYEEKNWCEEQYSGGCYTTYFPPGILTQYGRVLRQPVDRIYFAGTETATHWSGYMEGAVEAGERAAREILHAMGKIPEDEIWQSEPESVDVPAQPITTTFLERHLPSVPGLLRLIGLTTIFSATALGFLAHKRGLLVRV
5-hydroxytryptamine receptor 2C (Homo sapiens), sequence (P28335 whole entry): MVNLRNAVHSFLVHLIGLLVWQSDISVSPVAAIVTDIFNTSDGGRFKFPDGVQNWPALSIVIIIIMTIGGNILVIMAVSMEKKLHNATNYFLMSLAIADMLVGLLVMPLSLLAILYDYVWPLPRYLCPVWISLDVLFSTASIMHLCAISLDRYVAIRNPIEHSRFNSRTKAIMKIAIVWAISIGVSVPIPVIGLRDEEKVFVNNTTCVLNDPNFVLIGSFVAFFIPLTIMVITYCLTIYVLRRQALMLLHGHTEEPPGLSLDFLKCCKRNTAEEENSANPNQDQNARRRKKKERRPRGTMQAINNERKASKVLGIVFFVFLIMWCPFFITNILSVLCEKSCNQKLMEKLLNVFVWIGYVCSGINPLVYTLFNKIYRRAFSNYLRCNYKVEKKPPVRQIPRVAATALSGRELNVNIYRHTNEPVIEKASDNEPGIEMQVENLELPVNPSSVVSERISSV
5-hydroxytryptamine receptor 6 (Homo sapiens), sequence (P50406 whole entry): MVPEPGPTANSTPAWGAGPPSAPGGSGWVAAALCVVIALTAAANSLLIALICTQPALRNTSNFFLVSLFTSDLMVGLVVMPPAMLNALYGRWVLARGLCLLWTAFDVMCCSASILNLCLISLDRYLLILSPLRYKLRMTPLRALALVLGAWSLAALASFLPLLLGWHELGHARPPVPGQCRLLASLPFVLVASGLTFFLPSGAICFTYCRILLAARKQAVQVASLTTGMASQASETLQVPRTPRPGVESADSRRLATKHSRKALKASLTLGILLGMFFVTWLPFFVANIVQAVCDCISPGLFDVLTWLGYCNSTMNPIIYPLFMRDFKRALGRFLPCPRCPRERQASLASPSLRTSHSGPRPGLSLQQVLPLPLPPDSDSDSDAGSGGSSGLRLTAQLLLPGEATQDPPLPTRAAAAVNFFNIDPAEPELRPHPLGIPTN
Mitogen-activated protein kinase 3 (Homo sapiens), sequence (P27361 whole entry): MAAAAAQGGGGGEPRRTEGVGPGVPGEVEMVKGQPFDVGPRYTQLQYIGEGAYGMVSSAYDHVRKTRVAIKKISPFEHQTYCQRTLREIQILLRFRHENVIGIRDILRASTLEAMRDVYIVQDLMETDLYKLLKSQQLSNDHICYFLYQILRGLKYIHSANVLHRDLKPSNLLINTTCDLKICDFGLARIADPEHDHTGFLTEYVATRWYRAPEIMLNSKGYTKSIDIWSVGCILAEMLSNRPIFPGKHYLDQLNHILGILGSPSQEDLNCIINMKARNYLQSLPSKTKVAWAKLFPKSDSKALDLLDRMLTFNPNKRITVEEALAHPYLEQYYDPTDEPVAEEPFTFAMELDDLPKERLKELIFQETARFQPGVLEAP
Alpha-1D adrenergic receptor, sequence (P25100 whole entry): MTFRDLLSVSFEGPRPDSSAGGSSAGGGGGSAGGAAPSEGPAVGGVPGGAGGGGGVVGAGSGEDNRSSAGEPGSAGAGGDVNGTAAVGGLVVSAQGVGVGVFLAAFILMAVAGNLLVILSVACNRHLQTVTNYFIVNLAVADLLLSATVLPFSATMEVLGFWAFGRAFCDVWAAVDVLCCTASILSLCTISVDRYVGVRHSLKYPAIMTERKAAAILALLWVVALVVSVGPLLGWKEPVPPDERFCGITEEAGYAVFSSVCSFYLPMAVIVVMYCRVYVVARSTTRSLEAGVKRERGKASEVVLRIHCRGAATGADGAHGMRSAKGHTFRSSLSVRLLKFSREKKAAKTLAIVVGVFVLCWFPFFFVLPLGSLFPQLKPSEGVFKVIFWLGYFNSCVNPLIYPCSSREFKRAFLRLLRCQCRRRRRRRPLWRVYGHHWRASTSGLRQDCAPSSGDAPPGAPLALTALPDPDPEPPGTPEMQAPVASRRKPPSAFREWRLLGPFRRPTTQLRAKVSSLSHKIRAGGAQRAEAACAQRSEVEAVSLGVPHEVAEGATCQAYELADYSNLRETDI
Cathepsin G (Homo sapiens), sequence (P08311 whole entry): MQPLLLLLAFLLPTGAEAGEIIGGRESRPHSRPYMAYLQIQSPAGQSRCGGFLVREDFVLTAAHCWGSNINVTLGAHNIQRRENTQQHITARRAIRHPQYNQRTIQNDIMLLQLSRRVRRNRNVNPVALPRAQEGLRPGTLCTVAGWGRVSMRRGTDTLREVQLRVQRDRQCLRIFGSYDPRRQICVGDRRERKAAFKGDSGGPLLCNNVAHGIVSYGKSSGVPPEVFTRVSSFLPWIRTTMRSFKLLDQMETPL
D(3) dopamine receptor, sequence (P35462 whole entry): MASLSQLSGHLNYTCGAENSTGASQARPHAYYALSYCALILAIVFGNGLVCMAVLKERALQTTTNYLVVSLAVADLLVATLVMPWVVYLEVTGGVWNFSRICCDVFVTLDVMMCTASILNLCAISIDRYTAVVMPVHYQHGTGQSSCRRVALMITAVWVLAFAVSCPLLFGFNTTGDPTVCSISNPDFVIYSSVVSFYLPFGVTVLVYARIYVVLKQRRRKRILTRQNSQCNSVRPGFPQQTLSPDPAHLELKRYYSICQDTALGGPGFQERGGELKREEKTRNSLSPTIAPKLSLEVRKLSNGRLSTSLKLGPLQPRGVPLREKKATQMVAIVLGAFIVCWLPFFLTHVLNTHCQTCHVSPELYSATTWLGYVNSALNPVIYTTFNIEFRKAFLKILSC
5-hydroxytryptamine receptor 5A (Homo sapiens), sequence (P47898 whole entry): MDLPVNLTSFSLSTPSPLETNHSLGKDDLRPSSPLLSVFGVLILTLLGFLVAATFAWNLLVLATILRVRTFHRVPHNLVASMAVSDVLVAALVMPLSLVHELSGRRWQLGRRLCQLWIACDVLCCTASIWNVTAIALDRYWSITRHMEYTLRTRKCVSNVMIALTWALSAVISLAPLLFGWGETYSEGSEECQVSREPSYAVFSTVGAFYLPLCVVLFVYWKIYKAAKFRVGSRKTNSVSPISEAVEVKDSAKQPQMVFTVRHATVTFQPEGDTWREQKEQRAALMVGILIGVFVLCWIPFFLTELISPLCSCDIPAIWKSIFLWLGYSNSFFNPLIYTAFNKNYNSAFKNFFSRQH
Free fatty acid receptor 1, sequence (O14842 whole entry): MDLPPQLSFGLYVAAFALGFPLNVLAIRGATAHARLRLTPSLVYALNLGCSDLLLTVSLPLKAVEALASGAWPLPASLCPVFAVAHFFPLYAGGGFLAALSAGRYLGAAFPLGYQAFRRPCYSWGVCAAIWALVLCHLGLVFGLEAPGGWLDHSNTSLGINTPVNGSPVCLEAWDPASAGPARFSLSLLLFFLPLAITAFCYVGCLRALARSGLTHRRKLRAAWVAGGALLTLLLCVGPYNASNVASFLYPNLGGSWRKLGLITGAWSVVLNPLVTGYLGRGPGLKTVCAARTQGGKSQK

On to `Cc1cc(OC2CCS(=O)(=O)CC2)cc(C)c1-c1cccc(COc2ccc(C(=O)O)c(F)c2)c1`, for which, in series [1], the Ki is 2.75 µM and the pKi came out at 5.56. Also, the EC50 in series [2] is > 10 µM (not active). Also, the inhibition in series [3] was -4.72%. For the same compound, in series [4], the inhibition is -1%.
Take `Cc1cc(OC2CCS(=O)(=O)CC2)cc(C)c1-c1cccc(COc2ccc(CCC(=O)O)c(F)c2)c1`: the Ki on D(3) dopamine receptor is 0.925 µM; on D(4) dopamine receptor, 1.23 µM; in series [5], above 10 µM; in series [6], above 10 µM; in series [7], 7.52 µM. The pKi in [5] and in [6] was below 5 in each case. For the same compound, the inhibition in series [8] was 14%; in series [9] it was -5%; in series [10], 3%; in series [11] it was 30%; in series [12] it was -3%; in [13] it was 20%. Moreover, the inhibition in the series filed under Bos taurus was 5%; in series [14], 4%; in [15], 61%; in the series filed under Rattus norvegicus, -1%; in series [16], 27%; in series [17], 5%. Moreover, the inhibition in series [18] was -1%; in series [19], 44%; in series [20] it was 64%; in series [21], 7.36%; in [22], 14.1%; in series [23] it was 13.3%. Also, the inhibition in series [24] is -7.86%; in [25], 2.66%; in series [26] it was -0.18%; in [27], -6%. The inhibition at 60 min, 10 µM at MAO-B is recorded as 6% (not active). Also, in series [28], the inhibition at 30 min, 10 µM is recorded as 1% (not active).

The term Ki denotes the equilibrium dissociation constant of an inhibitor or competing ligand from its target. What is called pKi is −log10 of the Ki, conventionally taken in molar units. The term EC50 denotes the midpoint of the concentration-response curve. A high value points to weaker potency. Usually inhibition stands for the relative decrease from the control value, in per cent.
